Measurements published in US10064873B2, “Compounds and compositions for treating HIV with derivatives of Betulin” (GlaxoSmithKline LLC, priority 2011, dated 2018).
Where two headings read alike, the source gives them in different places. One block for each compound: values may come before it.

Legend:
HIV-1 (strain IIIB) = assay: MT4 Cell Antiviral Assay (propidium iodide or MTS readout); type: cell-based; conditions: Human immunodeficiency virus 1, IIIB, read-out: expected range of IC50 values (control and standard)
HIV [1] = assay: Standard PBMC assay (0% human serum); type: cell-based; conditions: Human immunodeficiency virus 1, PBMC, 168 h, PBMCs, 7 days
[2] = tested on: NL4-3 strain with V370A site directed mutant polymorphism; assay: MT4 antiviral assay, NL4-3 strain with V370A site directed mutant polymorphism; type: cell-based, HIV-1; conditions: Human immunodeficiency virus 1, NL43, MT4 cells
HIV NL4-3 wt = assay: MT4 antiviral assay, NL4-3 strain wild type; type: cell-based, HIV-1
HIV-1 strain JR-CSF = assay: Modified PBMC (PBL) assay with human serum titration; type: cell-based; conditions: for IC50: Human immunodeficiency virus 1, PBMC
Procedure: In this assay, 8×10^6 cells from pooled donors were incubated with virus for 1 hour, followed by centrifugation for 1 hour. Cells were then gently re-suspended and incubated an additional 2 hours.

HIV [3] = conditions: cited from earlier work
[4] = Human immunodeficiency virus 1, NL43, MT4 cells, read-out: EC50 NL4-3 wt
[5] = Human immunodeficiency virus 1, NL43, MT4, read-out: EC50 NL4-3 wt (nM)

- IC50 (HIV-1 (strain IIIB)): 40 to 120 nM
Structure (SMILES): Cc1cn([C@H]2C[C@H](N=[N+]=[N-])[C@@H](CO)O2)c(=O)[nH]c1=O [3′-azido-3′-deoxythymidine]

Structure (SMILES): C=C(C)[C@@H]1CC[C@]2(C(=O)O)CC[C@]3(C)[C@H](CC[C@@H]4[C@@]5(C)CC[C@H](OC(=O)CC(C)(C)C(=O)O)C(C)(C)[C@@H]5CC[C@]43C)[C@@H]12 [Bevirimat]
- IC50 (HIV [1]): 9.76 nM
- EC50 ([2]; read-out: EC50, MT4 antiviral assay NL4-3 strain with V370A polymorphism): 6060 nM
- EC50 ([2]; read-out: MT4 NL. V370A EC50): 6060 nM
- EC50 (HIV NL4-3 wt; Human immunodeficiency virus 1, NL43, MT4 cells, Consensus Clade B Sp1 Genotype, read-out: MT4 NL. wt* EC50): 223 nM
- EC50 (HIV NL4-3 wt; Human immunodeficiency virus 1, NL43, MT4 cells, read-out: EC50, MT4 antiviral assay NL4-3 strain / HIV wild type potency): 223 nM
- effect of human serum on IC50 values (HIV-1 strain JR-CSF; 10-40% human serum vs standard assay): large increase in the IC50 values
- IC50 (HIV-1 strain JR-CSF; 10%, 20%, 30% and 40% human serum, unit mM, read-out: IC50 in the presence of human serum): 1380 to 13000 nM
- fold change in the IC50 value in the presence of 100% serum (HIV-1 strain JR-CSF; extrapolated, compared to control experiment): 2,310 fold
- Cmin target (HIV [3]; clinical, McCallister et al. poster 2008): > 20000 ng/mL
- mean reduction of HIV viral load (HIV [3]; patients with trough levels >=20 μg/mL and no baseline Gag polymorphisms at Q369, V370 or T371): 1.3 log10/mL

- IC50 (HIV-1 strain JR-CSF; 10%, 20%, 30% and 40% human serum, read-out: IC50 in the presence of human serum): 0.52 to 3.07 nM
Structure (SMILES): CC(C)C1=C2[C@H]3CC[C@@H]4[C@@]5(C)CC[C@H](OC(=O)CC(C)(C)C(=O)O)C(C)(C)[C@@H]5CC[C@@]4(C)[C@]3(C)CC[C@@]2([C@@H](O)CN(CCN(C)C)Cc2ccc(Cl)cc2)CC1=O [Compound 51, 4-(((3aR,5aR,5bR,7aR,9S,11aR,11bR,13aS)-3a-((R)-2-((4-Chlorobenzyl)(2-(dimethylamino)ethyl)amino)-1-hydroxyethyl)-1-isopropyl-5a,5b,8,8,11a-pentamethyl-2-oxo-3,3a,4,5,5a,5b,6,7,7a,8,9,10,11,11a,11b,12,13,13a-octadecahydro-2H-cyclopenta[a]chrysen-9-yl)oxy)-2,2-dimethyl-4-oxobutanoic acid]
- IC50 (HIV-1 strain JR-CSF; read-out: estimated IC50 for 100% human serum, linear extrapolation from normalized IC50 values): 0.33 nM

Structure (SMILES): CC(C)C1=C2[C@H]3CC[C@@H]4[C@@]5(C)CC[C@H](OC(=O)CC(C)(C)C(=O)O)C(C)(C)[C@@H]5CC[C@@]4(C)[C@]3(C)CC[C@@]2([C@@H](O)CNCc2ccc(F)cc2)CC1=O [Example 77, 4-(((3aR,5aR,5bR,7aR,9S,11aR,11bR,13aS)-3a-((R)-2-((4-fluorobenzyl)amino)-1-hydroxyethyl)-1-isopropyl-5a,5b,8,8,11a-pentamethyl-2-oxo-3,3a,4,5,5a,5b,6,7,7a,8,9,10,11,11a,11b,12,13,13a-octadecahydro-2H-cyclopenta[a]chrysen-9-yl)oxy)-2,2-dimethyl-4-oxobutanoic acid]
- EC50 (HIV NL4-3 wt; [4]): 4.7 nM

Structure (SMILES): CC(C)C1=C2[C@H]3CC[C@@H]4[C@@]5(C)CC[C@H](OC(=O)CC(C)(C)C(=O)O)C(C)(C)[C@@H]5CC[C@@]4(C)[C@]3(C)CC[C@@]2([C@H](O)CN(CCN(C)C)Cc2ccc(F)cc2)CC1=O [Example 78, 4-(((3aR,5aR,5bR,7aR,9S,11aR,11bR,13aS)-3a-((S)-2-((2-(dimethylamino)ethyl)(4-fluorobenzyl)amino)-1-hydroxyethyl)-1-isopropyl-5a,5b,8,8,11a-pentamethyl-2-oxo-3,3a,4,5,5a,5b,6,7,7a,8,9,10,11,11a,11b,12,13,13a-octadecahydro-2H-cyclopenta[a]chrysen-9-yl)oxy)-2,2-dimethyl-4-oxobutanoic acid]
- EC50 (HIV NL4-3 wt; [4]): 2.1 nM

Structure (SMILES): CC(C)C1=C2[C@H]3CC[C@@H]4[C@@]5(C)CC[C@H](OC(=O)CC(C)(C)C(=O)O)C(C)(C)[C@@H]5CC[C@@]4(C)[C@]3(C)CC[C@@]2([C@H](O)CNCc2ccc(F)cc2)CC1=O [Example 79, 4-(((3aR,5aR,5bR,7aR,9S,11aR,11bR,13aS)-3a-((S)-2-((4-fluorobenzyl)amino)-1-hydroxyethyl)-1-isopropyl-5a,5b,8,8,11a-pentamethyl-2-oxo-3,3a,4,5,5a,5b,6,7,7a,8,9,10,11,11a,11b,12,13,13a-octadecahydro-2H-cyclopenta[a]chrysen-9-yl)oxy)-2,2-dimethyl-4-oxobutanoic acid]
- EC50 (HIV NL4-3 wt; [4]): 14.7 nM

Structure (SMILES): CC(C)C1=C2[C@H]3CC[C@@H]4[C@@]5(C)CC[C@H](OC(=O)CC(C)(C)C(=O)O)C(C)(C)[C@@H]5CC[C@@]4(C)[C@]3(C)CC[C@@]2([C@@H](O)CN(CCN(C)C)Cc2ccc(Cl)cc2Cl)CC1=O [Example 80, 4-{[(1R,2R,5R,10S,13R,14R, 17S,19R)-5-[(1R)-2-{[(2,4-dichlorophenyl)methyl][2-(dimethylamino)ethyl]amino}-1-hydroxyethyl]-1,2,14,18,18-pentamethyl-7-oxo-8-(propan-2-yl)pentacyclo[11.8.0.0^ {2,10}.0^{5,9}.0^{14,19}]henicos-8-en-17-yl]oxy}-2,2-dimethyl-4-oxobutanoic acid]
- EC50 (HIV NL4-3 wt; [4]): 2.4 nM

Structure (SMILES): CC(C)C1=C2[C@H]3CC[C@@H]4[C@@]5(C)CC[C@H](OC(=O)CC(C)(C)C(=O)O)C(C)(C)[C@@H]5CC[C@@]4(C)[C@]3(C)CC[C@@]2([C@@H](O)CN(CCN(C)C)C(=O)c2ccc(Cl)cc2)CC1=O [Example 81, 4-{[(1R,2R,5R,10S,13R,14R, 17S,19R)-5-[(1R)-2-[1-(4-chlorophenyl)-N-[2-(dimethylamino)ethyl] formamido]-1-hydroxyethyl]-1,2,14,18,18-pentamethyl-7-oxo-8-(propan-2-yl)pentacyclo[11.8.0.0^ {2,10}.0^{5,9}.0^{14,19}]henicos-8-en-17-yl]oxy}-2,2-dimethyl-4-oxobutanoic acid]
- EC50 (HIV NL4-3 wt; [4]): 3 nM

Structure (SMILES): CC(C)C1=C2[C@H]3CC[C@@H]4[C@@]5(C)CC[C@H](OC(=O)CC(C)(C)C(=O)O)C(C)(C)[C@@H]5CC[C@@]4(C)[C@]3(C)CC[C@@]2(CCNCc2ccccc2Cl)CC1=O [Example 82, 4-{[(1R,2R,5R,10S,13R,14R, 17S,19R)-5-(2-{[(2-chlorophenyl)methyl]amino}ethyl)-1,2,14,18,18-pentamethyl-7-oxo-8-(propan-2-yl)pentacyclo[11.8.0.0^ {2,10}.0^{5,9}.0^{14,19}]henicos-8-en-17-yl]oxy}-2,2-dimethyl-4-oxobutanoic acid]
- EC50 (HIV NL4-3 wt; [5]): 8.9 nM

Structure (SMILES): CC(C)C1=C2[C@H]3CC[C@@H]4[C@@]5(C)CC[C@H](OC(=O)CC(C)(C)C(=O)O)C(C)(C)[C@@H]5CC[C@@]4(C)[C@]3(C)CC[C@@]2(CCNC(=O)c2ccccc2)CC1=O [Example 83, 2,2-dimethyl-4-oxo-4-{[(1R,2R,5R,10S,13R,14R, 17S,19R)-1,2,14,18,18-pentamethyl-7-oxo-5-[2-(phenylformamido)ethyl]-8-(propan-2-yl)pentacyclo[11.8.0.0^ {2,10}.0^{5,9}.0^{14,19}]henicos-8-en-17-yl]oxy)butanoic acid]
- EC50 (HIV NL4-3 wt; [5]): 7.3 nM
